In patent publication US20230183248A1, “PYRROLO[1,2-D][1,2,4]TRIAZINE-2-YL-ACETAMIDES AS INHIBITORS OF THE NLRP3 INFLAMMASOME PATHWAY” (JANSSEN PHARMACEUTICA NV, priority 2020, published 2023) one finds IC50, melting point and EC50 data, which are given here for 34 compounds.

SMILES strings stand for the structures. pEC50, pIC50: −log10 of the molar value. Some results are limits rather than exact numbers.

One data set deals with IL-1β. Nature of the data set: PBMC assay: LPS-stimulated IL-1β release. Format: cell-based. Conditions: human PBMCs, 30 min compound pre-incubation, 100 ng/ml LPS for 6 hrs, supernatant, MSD. As to the method:
(§1) Peripheral venous blood was collected from healthy individuals and human peripheral blood mononuclear cells (PBMCs) were isolated from blood by Ficoll-Histopaque (Sigma-Aldrich, A0561) density gradient centrifugation. After isolation, PBMCs were stored in liquid nitrogen for later use. Upon thawing, PBMC cell viability was determined in growth medium (RPMI media supplemented with 10% fetal bovine serum, 1% Pen-Strep and 1% L-glutamine). Compounds were spotted in a 1:3 serial dilution in DMSO and diluted to the final concentration in 30 µl medium in 96 well plates (Falcon, 353072). PBMCs were added at a density of 7.5 × 10^4 cells per well and incubated for 30 min in a 5% CO2 incubator at 37° C. LPS stimulation was performed by addition of 100 ng/ml LPS (final concentration, Invivogen, tlrl-smlps) for 6 hrs followed by collection of cellular supernatant and the analysis of IL-1β […] and TNF cytokines levels (µM) via MSD technology according to manufacturers’ guidelines (MSD, K151A0H).
(§2) The IC50 values (for IL-1β) and EC50 values (TNF) were obtained on compounds of the invention/examples, and are depicted in the following table: […]

A further data set concerns TNF. Kind of data set: PBMC assay: LPS-stimulated TNF cytokine levels. Format: cell-based. Conditions: Homo sapiens, PBMC, human PBMCs, 30 min compound pre-incubation, 100 ng/ml LPS for 6 hrs, supernatant, MSD. As to the method: as §1, §2

In the case of `CC(C)c1nn(CC(=O)Nc2ccncn2)c(=O)c2cc(F)cn12` [Compound 7F], the melting point (commonly the temperature of the solid-liquid transition) amounted to 194.5 °C. The pIC50 (commonly the negative decadic logarithm of the IC50, by convention in mol/L) with IL-1β (Homo sapiens, PBMC) is less than 5.00. Further, in the data set on TNF, the negative-log EC50 (pEC50) (in general, the EC50 on a negative log10 scale, so that one unit is a factor of ten) was less than 5.00.
Turning to `CC(C)c1nn(CC(=O)Nc2ccncc2F)c(=O)c2cc(Cl)cn12` [Compound 9F], the melting point stood at 211.91 °C. The compound further showed a pIC50 in the data set on IL-1β (Homo sapiens, PBMC) of 5.47. Moreover, in the data set on TNF, the pEC50 is less than 5.00.
The compound `CCc1nn(CC(=O)Nc2ccccc2OC)c(=O)c2cccn12` [Compound 13F] showed a melting point of 167.68 °C. For the same compound, the pIC50 in the data set with IL-1β (Homo sapiens, PBMC) was less than 5.00. The compound also gave a pEC50 with TNF of less than 5.00.
The compound `C=C(C)c1cc2c(=O)n(CC(=O)Nc3ccncn3)nc(C(C)C)n2c1` [Compound 16F, 2-(4-isopropyl-1-oxo-7-(prop-1-en-2-yl)pyrrolo[1,2-d][1,2,4]triazin-2(1H)-yl)-N-(pyrimidin-4-yl)acetamide] came in with a melting point of 185.03 °C. The pIC50 with IL-1β (Homo sapiens, PBMC) is 5.43. This compound also gave a pEC50 with TNF of less than 5.00.
The matching figures for `CCc1cc2c(=O)n(CC(=O)Nc3ccncc3F)nc(C(C)C)n2c1` [Compound 22F]: 142.64 °C, 6.17 and less than 5.00.
On to `COCCc1nn(CC(=O)Nc2ccncn2)c(=O)c2cc(C(C)C)cn12` [Compound 24F], for which the melting point was found to be 184.19 °C. The pIC50 in the data set on IL-1β (Homo sapiens, PBMC) is 6.05. This compound gave a pEC50 with TNF of less than 5.00.
In turn, `CCN(C)c1nn(CC(=O)Nc2ccncn2)c(=O)c2cc(C(C)C)cn12` [Compound 26F] registered a melting point of 150.14 °C. The compound also showed a pIC50 with IL-1β (Homo sapiens, PBMC) of 5.88. This compound had a pEC50 in the data set with TNF of less than 5.00.
On to `C=C(OC)c1nn(CC(=O)Nc2ccncn2)c(=O)c2cc(C(C)C)cn12` [Compound 27F, 2-[7-isopropyl-4-(1-methoxyvinyl)-1-oxo-pyrrolo[1,2-d][1,2,4]triazin-2-yl]-N-pyrimidin-4-yl-acetamide], for which the melting point amounted to 201.01 °C. Further, the pIC50 in the data set with IL-1β (Homo sapiens, PBMC) was 5.72. The pEC50 in the data set with TNF was less than 5.00.
The matching figures for `CC(C)c1nn(CC(=O)Nc2ccncn2)c(=O)c2cc(C(F)F)cn12` [Compound 29F]: 216.46 °C, 5.78 and less than 5.00.
Turning to `CC(=O)c1nn(CC(=O)Nc2ccncn2)c(=O)c2cc(C(C)C)cn12` [Compound 35F, 2-(4-acetyl-7-isopropyl-1-oxo-pyrrolo[1,2-d][1,2,4]triazin-2-yl)-N-pyrimidin-4-yl-acetamide], the melting point was determined as 284.78 °C. Besides, the pIC50 in the data set on IL-1β (Homo sapiens, PBMC) is less than 5.00. This compound had a pEC50 with TNF of less than 5.00.
The compound `CC(C)c1cc2c(=O)n(CC(=O)Nc3ccncn3)nc(C(C)O)n2c1` (stereo not shown) [Compound 36F, 2-[4-(1-hydroxyethyl)-7-isopropyl-1-oxo-pyrrolo[1,2-d] [1,2,4]triazin-2-yl]-N-pyrimidin-4-yl-acetamide] came in with a melting point of 247.56 °C. Also, the pIC50 in the data set with IL-1β (Homo sapiens, PBMC) is 5.30. In addition, in the data set with TNF, the pEC50 was less than 5.00.
For the compound `CC(C)c1nn(CC(=O)Nc2ccncn2)c(=O)c2cc(-c3ccccc3)cn12` [Compound 47F], the melting point was 209.7 °C. The negative logarithm of the IC50 (pIC50) in the data set with IL-1β (Homo sapiens, PBMC) is less than 5.00. This compound showed a pEC50 in the data set with TNF of less than 5.00.
Compound `CC(C)c1nn(CC(=O)NC2CCOCC2)c(=O)c2cc(-c3ccccc3)cn12` [Compound 48F] yielded a melting point of 217.95 °C. Also, in the data set with IL-1β (Homo sapiens, PBMC), the pIC50 is less than 5.00. Moreover, the pEC50 in the data set on TNF is less than 5.00.
`CC(C)c1nn(CC(=O)Nc2ccncn2)c(=O)c2cc(C3CC3)cn12` [Compound 50F] gave a melting point of 182.51 °C. The same compound showed a pIC50 in the data set with IL-1β (Homo sapiens, PBMC) of approximately 6.42. The pEC50 in the data set with TNF is less than 5.00.
The compound `CC(C)c1cc2c(=O)n(CC(=O)NC3CCOCC3)nc(C(C)C)n2c1` [Compound 51F] registered a melting point of 181.03 °C. Also, the pIC50 in the data set on IL-1β (Homo sapiens, PBMC) is approximately 5.75. Besides, the pEC50 with TNF is less than 5.00.
On the same counts, the results for `CC(C)c1cc2c(=O)n(CC(=O)Nc3ccncn3)nc(N(C)C)n2c1` [Compound 55F] are 166.33 °C, 6.44 and less than 5.00.
In turn, `CCc1cc2c(=O)n(CC(=O)N[C@H]3C[C@@](C)(O)C3)nc(N(C)C)n2c1` [Compound 58F] displayed a melting point of 171.4 °C. In addition, the pIC50 in the data set with IL-1β (Homo sapiens, PBMC) is 6.43.
In the data set on IL-1β (Homo sapiens, PBMC), `CNC(=O)c1cc2c(=O)n(CC(=O)Nc3ccncn3)nc(C(C)C)n2c1` [Compound 76F, 4-isopropyl-N-methyl-1-oxo-2-(2-oxo-2-(pyrimidin-4-ylamino)ethyl)-1,2-dihydropyrrolo[1,2-d][1,2,4]triazine-7-carboxamide] showed a pIC50 of less than 5.00. For the same compound, the pEC50 with TNF is less than 5.00.
In turn, `CC(C)c1nn(CC(=O)Nc2ccncn2)c(=O)c2cc(C(=O)N(C)C)cn12` [Compound 77F] showed a pIC50 with IL-1β (Homo sapiens, PBMC) of less than 5.00. This compound also had a pEC50 in the data set with TNF of less than 5.00.
Compound `CC(C)c1nn(CC(=O)Nc2ccncn2)c(=O)c2cc(CCCF)cn12` [Compound 78F, 2-(7-(3-fluoropropyl)-4-isopropyl-1-oxopyrrolo[1,2-d][1,2,4]triazin-2(1H)-yl)-N-(pyrimidin-4-yl)acetamide] had a pIC50 in the data set on IL-1β (Homo sapiens, PBMC) of 5.63. The pEC50 with TNF was less than 5.00.
On to `CC(C)c1nn(CC(=O)Nc2ccncn2)c(=O)c2cc(C3CCOCC3)cn12` [Compound 79F], for which the pIC50 with IL-1β (Homo sapiens, PBMC) is less than 5.00. The pEC50 with TNF was less than 5.00.
With `CC(C)c1nn(CC(=O)Nc2ccncn2)c(=O)c2cc(CC3CCCOC3)cn12` (stereo not shown) [Compound 80F, 2-(4-isopropyl-1-oxo-7-((tetrahydro-2H-pyran-3-yl)methyl)pyrrolo[1,2-d][1,2,4]triazin-2(1H)-yl)-N-(pyrimidin-4-yl)acetamide], in the data set with IL-1β (Homo sapiens, PBMC), the pIC50 is less than 5.00. The same compound had a pEC50 in the data set on TNF of less than 5.00.
In the data set on IL-1β (Homo sapiens, PBMC), `CC(C)c1nn(CC(=O)Nc2ccncn2)c(=O)c2cc(CC3CCNCC3)cn12` [Compound 82F, 2-(4-isopropyl-1-oxo-7-(piperidin-4-ylmethyl)pyrrolo[1,2-d][1,2,4]triazin-2(1H)-yl)-N-(pyrimidin-4-yl)acetamide] had a pIC50 of less than 5.00. Also, the pEC50 with TNF is less than 5.00.
The compound `CC(C)c1nn(CC(=O)Nc2ccncn2)c(=O)c2cc(C3CNC3)cn12` [Compound 83F, 2-(7-(azetidin-3-yl)-4-isopropyl-1-oxopyrrolo[1,2-d][1,2,4]triazin-2(1H)-yl)-N-(pyrimidin-4-yl)acetamide] showed a pIC50 with IL-1β (Homo sapiens, PBMC) of less than 5.00. The same compound had a pEC50 with TNF of less than 5.00.
As for `CC(C)c1nn(CC(=O)Nc2ccncn2)c(=O)c2cc(C3CCNCC3)cn12` [Compound 84F, 2-(4-isopropyl-1-oxo-7-(piperidin-4-yl)pyrrolo[1,2-d][1,2,4]triazin-2(1H)-yl)-N-(pyrimidin-4-yl)acetamide], in the data set with IL-1β (Homo sapiens, PBMC), the pIC50 was less than 5.00. The pEC50 in the data set with TNF is less than 5.00.
Compound `CC(C)c1nn(CC(=O)Nc2ccncn2)c(=O)c2cc(C(C)(C)O)cn12` [Compound 86F, 2-(7-(2-hydroxypropan-2-yl)-4-isopropyl-1-oxopyrrolo[1,2-d][1,2,4]triazin-2(1H)-yl)-N-(pyrimidin-4-yl)acetamide] showed a negative logarithm of the IC50 (pIC50) in the data set on IL-1β (Homo sapiens, PBMC) of less than 5.00. For the same compound, the pEC50 in the data set on TNF was less than 5.00.
For `CC(C)c1nn(CC(=O)Nc2ccncn2)c(=O)c2cc(C(C)(C)F)cn12` [Compound 87F, 2-(7-(2-fluoropropan-2-yl)-4-isopropyl-1-oxopyrrolo[1,2-d][1,2,4]triazin-2(1H)-yl)-N-(pyrimidin-4-yl)acetamide], the pIC50 in the data set with IL-1β (Homo sapiens, PBMC) was 5.08. Besides, in the data set with TNF, the pEC50 is less than 5.00.
Turning to `COC(C)c1cc2c(=O)n(CC(=O)Nc3ccncn3)nc(C(C)C)n2c1` (stereo not shown) [Compound 88F], the pIC50 in the data set on IL-1β (Homo sapiens, PBMC) was 5.15; with IL-1β, 5.04. Further, in the data set with TNF, the pEC50 is less than 5.00.
In the data set with IL-1β (Homo sapiens, PBMC), `CC(C)c1nn(CC(=O)Nc2ccncn2)c(=O)c2cc(-c3cnn(C)c3)cn12` [Compound 89F, 2-(4-isopropyl-7-(1-methyl-1H-pyrazol-4-yl)-1-oxopyrrolo[1,2-d][1,2,4]triazin-2(1H)-yl)-N-(pyrimidin-4-yl)acetamide] had a pIC50 of less than 5.00. The same compound gave a pEC50 with TNF of less than 5.00.
Regarding `CC(C)c1nn(CC(=O)Nc2ccncn2)c(=O)c2cc(-c3ccn(C)n3)cn12` [Compound 90F], the negative-log IC50 (pIC50) in the data set on IL-1β (Homo sapiens, PBMC) was less than 5.00. In the data set with TNF, this compound gave a pEC50 of less than 5.00.
With `CC(C)c1nn(CC(=O)Nc2ccncn2)c(=O)c2cc(-c3cn[nH]c3)cn12` [Compound 91F], the negative logarithm of the IC50 (pIC50) in the data set on IL-1β (Homo sapiens, PBMC) is less than 5.00. In the data set on TNF, this compound had a pEC50 of less than 5.00.
Consider `CC(C)c1nn(CC(=O)Nc2ccncn2)c(=O)c2cc(-c3cc[nH]n3)cn12` [Compound 92F], for which the pIC50 in the data set on IL-1β (Homo sapiens, PBMC) was less than 5.00. Moreover, the pEC50 in the data set on TNF was less than 5.00.
With `CC(C)c1nn(CC(=O)Nc2ccncn2)c(=O)c2cc(-c3cn(C)cn3)cn12` [Compound 93F, 2-(4-isopropyl-7-(1-methyl-1H-imidazol-4-yl)-1-oxopyrrolo[1,2-d][1,2,4]triazin-2(1H)-yl)-N-(pyrimidin-4-yl)acetamide], in the data set on IL-1β (Homo sapiens, PBMC), the pIC50 was less than 5.00. The compound further gave a pEC50 with TNF of less than 5.00.
Consider `CC(C)c1nn(CC(=O)Nc2ccncn2)c(=O)c2cc(-c3c[nH]cn3)cn12` [Compound 94F, 2-(7-(1H-imidazol-4-yl)-4-isopropyl-1-oxopyrrolo[1,2-d][1,2,4]triazin-2(1H)-yl)-N-(pyrimidin-4-yl)acetamide], for which the pIC50 in the data set on IL-1β (Homo sapiens, PBMC) was less than 5.00. Moreover, in the data set with TNF, the pEC50 is less than 5.00.
